This assay deals with T1, F-actin.
T1 construct: gene ACTB; F-actin filaments
Briefly: microscopy-based apparent affinity measurement for F-actin (fluorescent probe; fixed-cell staining).

On to SiR-XActin [compound 8], for which the Kd amounted to 557 nM.

For SiR-actin [compound 2], the Kd came out at 6 nM.

Values taken from PMC12684325, “SiR‐XActin: A Fluorescent Probe for Imaging Actin Dynamics in Live Cells” (Angewandte Chemie (International Ed. in English), 2025).
